Several values for one entry are separate records, joined by “and”; a condition that tells them apart may be missing. Identical values can stand only once.
Assays:
PBMCs = assay: MTS cell viability in PBMC assay; format: cell-based, human; conditions: AZT control
Source text: Human peripheral blood mononuclear cells from a minimum of 2 donors, that have been blasted with PHA and IL-2, were counted, viability determined by Trypan Blue dye exclusion and mixed in equal ratios. Pooled donors were used to minimize the variability observed between individual donors which results from quantitative and qualitative differences in HIV infection and overall response to the PHA and IL-2 of primary lymphocyte populations. The cells were resuspended at 1×10^6 cells/mL in RPMI 1640 without phenol red supplemented with 15% Fetal Bovine Serum (heat inactivated), 2 mM L-glutamine, 100 U/mL penicillin, 100 μg/mL streptomycin, 10 μg/mL gentamycin and IL-2 (20 U/mL, R&D Systems, Minneapolis, Minn.). Fifty microliters of cells were then distributed to the inner 60 wells of a 96 well round bottom microtiter culture plate in a standard format developed by the Infectious Disease Research department of Southern Research Institute. Each plate contains cell control wells (cells only), virus control wells (cells plus virus), and experimental wells (drug plus cells plus virus). Serially diluted compounds are added to the microtiter plate followed by the appropriate pre-titered strain of HIV-1 or SHIV-1. All samples were assayed in triplicate with a replicate plate without virus for the determination of compound toxicity. The final volume per well was 200 µL. The assay was incubated for 6 days in a humidified atmosphere at 37° C., 5% CO2, after which supernatants were collected, for analysis of RT activity and sister plates analyzed for cell viability by MTS dye reduction. Wells were also examined microscopically and any abnormalities noted.
At assay termination the assay plates were stained with the soluble tetrazolium-based dye MTS (CellTiter® Reagent Promega, Madison, Wis.) to determined cell viability and quantify compound toxicity. […] At termination of the PBMC assay 20 µL of MTS reagent was added per well, and the wells are incubated for 4 h at 37° C.
AZT has been used as a relevant positive control compound for the individual assays.

HIV-1 RoJo = assay: PBMC antiviral assay (RT activity); format: cell-based; conditions: 6 days, AZT control, read-out: HIV-1 RoJo Infected PBMCs IC50
Protocol: (§1) Human immunodeficiency virus type 1 (HIV-1) strain RoJo is a low passage pediatric isolate derived in the laboratories of Southern Research Institute (SRI). The SHIV89.6pd was obtained from Mark Lewis at SRI and stocks grown in human PBMCs for antiviral testing.
(§2) Peripheral blood monocular cells (PBMCs) were obtained from normal hepatitis and HIV-1 negative donors by ficoll hypaque gradient separation. Briefly, anti-coagulated blood was diluted 1:1 with Dulbecco's phosphate buffered saline without Ca^++ and Mg^++ (PBS) and layered over 14 mL of Lymphocyte separation media in a 50 ml centrifuge tube. Tubes were then centrifuged for 30 minutes at 600×g. […] The mononuclear cells were counted, viability determined by Trypan Blue dye exclusion and resuspended in RPMI 1640 medium supplemented with 15% FBS (heat inactivated), 2 mM L-glutamine, 100 U/mL penicillin, 100 µg/mL streptomycin, and 10 µg/mL gentamycin with 2 µg/mL phytohemagluttin (PHA) at 1×10^6 cells/mL. […]
(§3) Human peripheral blood mononuclear cells from a minimum of 2 donors, that have been blasted with PHA and IL-2, were counted, viability determined by Trypan Blue dye exclusion and mixed in equal ratios. […] The assay was incubated for 6 days in a humidified atmosphere at 37° C., 5% CO2, after which supernatants were collected, for analysis of RT activity and sister plates analyzed for cell viability by MTS dye reduction. […]

SHIV 89.6pd = assay: PBMC antiviral assay (RT activity); format: cell-based; conditions: 6 days, AZT control, read-out: SHIV 89.6pd Infected PBMCs IC50
Protocol: as §1, §2, §3

HeLa CD4 LTR […]-gal cells [1] = assay: XTT toxicity on sister plate of the attachment assay; format: cell-based; conditions: XTT, sister plate
Protocol: This assay is designed to detect compounds that interact with the cell and block virus attachment, and/or compounds which interact with the forming attachment/fusion complex. The attachment assay is performed with HeLa CD4 LTR […]-gal cells. HeLa CD4 LTR […]-gal cells are routinely cultured with the required selection antibiotics. Twenty-four h prior to initiation of the assay the cells are trypsinized, counted and 1×10^4 cells placed in a 0.2 cm well in media without selection antibiotics. At 24 h media is removed and compound in media placed on the cells and incubated for 15 min at 37° C. A known titer of the IIIB strain of HIV is then added to the wells and the incubation continued for 1 h. At the end of the incubation the wells are washed 3 times with media and the culture continued for 40 to 48 h. At termination of the assay, media is removed and […]-galactosidase enzyme expression determined by chemiluminescence per manufacturers instructions (Tropix Gal-screen™, Bedford Mass.) by a single step chemiluminescent method using a single solution to lyse the cells and detect […]-galactosidase enzyme activity. Compound toxicity is monitored on a sister plate by XTT dye reduction. […] The virus adsorption interval of 1 h is sufficiently short that AZT, which requires phosphorylation to its active tri-phosphate form (AZT-TTP), is not active in this assay.

HeLa CD4 LTR […]-gal cells [2] = assay: XTT toxicity on sister plate of the fusion assay; format: cell-based; conditions: XTT, sister plate
Protocol: (§4) The fusion assay assesses the ability of compounds to block cell-to-cell fusion mediated by HIV-1 Env and CD4 expressed on separate cells. This assay is sensitive to inhibitors of both the gp120/CD4 interaction and inhibitors of the X4 coreceptor. First, 5×10^3 HeLa CD4 LTR […]-gal cells are placed in microtiter wells and incubated overnight. The following day the media is removed and the HeLa CD4 LTR […]-gal cells are incubated for 1 h at 37° C. in fresh media with test compound. Following the incubation 5×10^3 HL2/3 cells are added and the incubation continued for 40 to 48 h. At 40 to 48 h […]-galactosidase enzyme expression is detected by chemiluminescence (Tropix Gal-screen™, Tropix, Bedford, Mass.). Compound toxicity is monitored on a sister plate using XTT dye reduction.

[3] = molecular target: T1, cell-to-cell fusion mediated by HIV-1 Env and CD4 (Human immunodeficiency virus type 1 group M subtype B, UniProt P04578); format: cell-based; conditions: TC50/IC50
T1 construct: expressed in transfected cells; host or cells: HeLa CD4 LTR beta-gal cells (CD4) co-cultured with HL2/3 cells (HIV-1 Env)
Protocol: as §4

GHOST(3) X4/R5 cell line = assay: XTT cell viability in the CD4-dependent transmission assay; format: cell-based, human
Protocol: The […] is carried out essentially as described for the CD4-independent transmission assay except for the use of the CD4 positive GHOST(3) X4/R5 cell line. This cell line is derived from the HOS (human osteosarcoma) cell line that is negative for HIV coreceptor and CD4 expression. The cell line is engineered to express T4 (CD4), R5 and X4 via non-selectable retroviral vectors and an HIV-2 LTR hGFP construct with a hygromycin selectable marker. The cell lines are handled and cultured as described above for the CD4-independent HIV inhibition assay, with the exception that 2.5×10^4 GHOST(3) X4/R5 and 5×10^2 mitomycin C treated H9/SK-1 cells are used in the assay. Addition of compounds, mitomycin C treatment and post-transmission washing to remove the H9/SK-1 cells are performed as described above to allow comparability of the two antiviral assays. Virus replication is assessed at 24 h post infection, following 3 washes, by measurement of cell-associated p24 by ELISA to ensure a single round of infection in the presence of CD4. Compound toxicity and cell viability are assessed by XTT dye reduction.

ME180 cells = assay: XTT cell viability in the CD4-independent transmission assay
Protocol: ME180 cells, a CD4 negative, X4 positive cervical epithelial cell line is maintained in RPMI 1640 supplemented with 10% fetal bovine serum, glutamine and antibiotics. Twenty-four h prior to the assay ME180 cells are trypsonized, washed and seeded in 96-well flat bottom microtiter plates at a density of 2×10^3 cells per well. On the day of the assay, H9 cells chronically infected with the SK1 clinical isolate of HIV-1 (H9-SK1) are treated with freshly made mitomycin C (200 μg/ml) for 60 minutes at 37° C. This concentration of mitomycin C is sufficient to result in cell death, but allows virus transmission to occur. After mitomycin C treatment the H9-SK1 cells are washed three times with tissue culture medium. Test compounds are added to the ME180 monolayer followed by 2×10^4 H9-SK1 cells. The ME180 cells are co-cultured with H9-SK-1 cells and test material for 4 h, and the H9-SK1 cells are removed by washing the ME180 monolayer three times with PBS. At 24 and 48 h post assay initiation the wells are again washed three times with PBS to ensure removal of the H9-SK1 cells, and culture continued in test material free media. At six days post-co-cultivation, supernatants are collected and evaluated for p24 antigen expression by ELISA. Cell viability is assessed by XTT dye reduction. […] Testing in the presence of mucin is carried out by addition of 200 µg/ml of porcine mucin (Sigma Chemical Co., St Louis, Mo.) to the transmission reactions. Transmission intervals and washing without replacement of mucin or compound are carried as described above. All determinations are performed in triplicate with serial ½ Log10 dilution of the test materials.
TC50 values for the test materials are derived by measuring the reduction of the tetrazolium dye XTT (2,3-bis(2-methoxy-4-nitro-5-sulfophenyl)-5-[(phenylamino)carbonyl]-2H-tetrazolium hydroxide) in replicate microtiter plates containing cell and compound without virus. […] XTT solution is prepared daily as a stock of 1 mg/mL in PBS. Phenazine methosulfate (PMS) solution is prepared at 15 mg/mL in PBS and stored in the dark at −20° C. XTT/PMS stock is prepared immediately before use by diluting the PMS 1:100 into PBS and adding 40 µl per mL of XTT solution. Fifty microliters of XTT/PMS are added to each well of the plate and the plate incubated for 4 h at 37° C. The 4 h incubation has been empirically determined to be within the linear response range for […] dye reduction with the indicated numbers of cells for each assay. Adhesive plate sealers are used in place of the lids, the sealed plate is inverted several times to mix the soluble formazan product and the plate is read at 450 nm with a Molecular Devices Vmax 96 well plate format spectrophotometer.
Dextran sulfate (positive) and dextran (negative) are used as controls for the CD4-dependent and CD4-independent HIV transmission inhibition assays. […] Commercially available Penicillin (10,000 U/ml) Streptomycin (10.0 mg/ml) solution is used as a positive control for the Lactobacillus sensitivity assay.

| Compound | HIV-1 RoJo Infected PBMCs TC50 (PBMCs; plate of the HIV-1 RoJo test) | SHIV 89.6pd Infected PBMCs TC50 (PBMCs; plate of the SHIV 89.6pd test) | IC50 (HIV-1 RoJo) | IC50 (SHIV 89.6pd) | Attachment Assay TC50 (HeLa CD4 LTR […]-gal cells [1]) | Fusion Assay TC50 (HeLa CD4 LTR […]-gal cells [2]) | Fusion Assay TI [3] | CD4-Dependent Transmission Assay TC50 (GHOST(3) X4/R5 cell line; Exp. 1, without mucin) | CD4-Dependent Transmission Assay TC50 (GHOST(3) X4/R5 cell line; Exp. 2, with mucin) | CD4-Dependent Transmission Assay TC50 (GHOST(3) X4/R5 cell line; Exp. 2, without mucin) | CD4-Independent Transmission Assay TC50 (ME180 cells; Exp. 2, with mucin) | CD4-Independent Transmission Assay TC50 (ME180 cells; Exp. 2, without mucin) |
| --- | --- | --- | --- | --- | --- | --- | --- | --- | --- | --- | --- | --- |
| Cc1cn([C@H]2C[C@H](N=[N+]=[N-])[C@@H](CO)O2)c(=O)[nH]c1=O [AZT, reference compound] | >1000 nM | >1000 nM | 5 nM | 2 nM |  |  |  |  |  |  |  |  |
| COc1cc(-c2ccc(/N=N/c3ccc4c(S(=O)(=O)O)cc(S(=O)(=O)O)c(N)c4c3O)c(OC)c2)ccc1/N=N/c1ccc2c(S(=O)(=O)O)cc(S(=O)(=O)O)c(N)c2c1O [Chicago Sky Blue, reference compound] |  |  |  |  | >10 µg/mL | >10 µg/mL | >12 and >16 |  |  |  |  |  |
| Dextran sulfate |  |  |  |  |  |  |  | >100 µg/mL | >50 µg/mL | >50 µg/mL | >50 µg/mL | >50 µg/mL |
| dextran |  |  |  |  |  |  |  | >100 µg/mL | >100 µg/mL | >100 µg/mL | >100 µg/mL | >100 µg/mL |

Reference: US8158575B2, “Agent for the prevention and treatment of sexually transmitted diseases-I” (priority 2001, dated 2012)
